Measured values taken from patent US9248171B2, “Immunogenic peptides and their use in transplantation” (IMCYSE SA, priority 2008, dated 2016).
Marks after values point to notes of the source that are not given here.

Columns and labels:
[1] = system: Bm12 mouse skin allograft; assay: Rejection of Bm12 skin graft (MHC class II mismatch) in pre-immunized C57B1/6 mice; type: in vivo; details: 3 subcutaneous administrations in CFA/IFA at fortnight intervals
Source text: The Bm12 mice constitute a variant of the C57B1/6 mice in which a spontaneous mutation has occurred in the I-Ab locus. This mutation consists of 3 amino acid substitutions in a stretch of 5 amino acids and thereby generates a limited MHC class II mismatch between Bm12 mice and C57B1/6 wild type mice. This mismatch is nevertheless sufficient as to elicit rejection of Bm12 mouse skin allograft.
The 3 substituted amino acids are Ile67Phe, Arg70Gln and Thr71Lys located in the third hypervariable region of the beta chain. A synthetic peptide encompassing these residues was made and has the sequence: PEFLEQKRA (SEQ ID. NO: 10). This peptide was modified according to the invention by incorporation of a thioreductase consensus sequence, resulting in the exemplary immunogenic peptide CGHCPEFLEQKRA (SEQ ID. NO: 11).
Cytotoxic CD4+ regulatory T cells towards the modified peptide of SEQ ID. NO: 11 are elicited in C57B1/6 mice by 3 subcutaneous administration of the peptide in CFA/IFA given at fortnight intervals. Such mice are then grafted with the skin of Bm12 mice.

[2] = system: APC (antigen-presenting cells); assay: Apoptosis of peptide-loaded APC (Annexin V binding) induced by CD4+ T cells from immunized mice (Dby peptides); type: cell-based, C57B1/6 mice; details: 10 μg peptide SC in CFA then IFA; APC loaded with SEQ ID. NO: 5 or SEQ ID. NO: 6
Experimental: Groups of C57BL/6 female mice were immunized with 10 μg of peptide of SEQ ID. NO: 6 emulsified in CFA (complete Freund's adjuvant) for the first SC (subcutaneous) injection and in IFA (incomplete Freund's adjuvant) for the two subsequent immunizations. The spleen of such mice was retrieved 10 days after the last immunization and CD4+ T cells were obtained by cell sorting using magnetic beads.
These CD4+ T cells were assayed in vitro for their capacity to induce apoptosis of APC (antigen-presenting cells). Thus, spleen cells of naïve C57B1/6 mice were deprived of CD4+ T cells by magnetic bead sorting and used as APC. Such APC were loaded with peptides of either SEQ ID. NO: 5 or of SEQ ID. NO: 6 by incubation for 16 h at room temperature. The cells were then washed to eliminate residual free peptides.

[3] = system: male C57B1/6 skin allograft; assay: Skin graft rejection, male skin onto pre-immunized syngeneic female mice (naive mice); type: in vivo, C57B1/6 mice; details: for Rejection rate Day 10 / Rejection rate Day 20: 3 SC injections, rejected mice/mice, rejection = more than 50% of graft surface necrotic; for Effect of pre-immunization on skin graft rejection (in words): pre-immunization in either CFA/IFA or alum
Experimental: One of the most studied models of graft rejection is skin grafting between syngeneic animals of different sex. Thus, the […] contains a number of genes, in particular the Dby gene, which encodes a minor histocompatibility antigen that elicits strong CD4+ T cell activation and chronic rejection in females. […] T cell epitopes from the Dby antigen have been described and selected as shown in Example 1 (peptide of SEQ ID. NO: 5). A synthetic peptide of SEQ ID. NO: 6 was prepared. Groups of 3 female C57B1/6 mice (H-2b haplotype) were made for testing the capacity of modified peptides of SEQ ID NO:1 to elicit tolerance to the skin allograft. Where applicable, pre-immunization was carried out by 3 subcutaneous injections of peptides containing either the natural epitope or its modified counterpart. Injections were made at fortnight intervals in either CFA/IFA or alum. Groups were therefore as follows: • Group 1: skin allograft without preimmunization • Group 2: skin autograft • Group 3: preimmunization with peptide of SEQ ID. NO: 6 emulsified in CFA (first immunization) and IFA for second and third immunization) • Group 4: same as in Group 3, but with alum as an adjuvant • Group 5: same as in Group 3, but using the natural peptide of SEQ ID. NO: 5 All these mice, except for Group 2 mice, received a male C57B1/6 skin allograft of 1 cm2, either directly (Group 1) or 2 weeks after the last immunization for Groups 3, 4 and 5. Group 2 mice received and autograft. Rejection rate was evaluated at day 10 and 20 and judged effective if more than 50% of the graft surface was necrotic.

[4] = system: heterotopic male heart transplant; assay: Heterotopic male heart transplant in pre-immunized syngeneic female mice; type: in vivo, C57B1/6 mice; details: 3 subcutaneous injections at fortnight intervals in CFA/IFA
Source text: To establish the proof of concept that cytolytic regulatory CD4+ T cells of the present invention can prevent rejection of a vascularized organ, the model of heterotopic heart transplantation is used. This method is well known in the art, as described for instance in Kadner A et al, European Journal of Cardio-thoracic Surgery (2000) 17: 474-481. Briefly, the method consists in abdominal implantation of the heart in a non-working setting, namely the heart is vascularized but not supporting the circulation. This allows long-term follow-up of the graft and multiple biopsies without killing the experimental animal.
Hearts from C57BL/6 males are grafted using such technique in the abdomen of syngeneic females. The rejection process, which is mediated by expression of H-Y-derived antigens in both MHC class I and MHC class II determinants, is mainly due to the circulation of recipient's specific CD4+ T cells that are activated by recognition of alloantigen-derived peptides by graft endothelial cells. Such CD4+ T cells produce IL-2 and IFN-gamma, driving more inflammation and providing help for the maturation of specific CD8+ T cells.
C57B1/6 female mice are pre-immunized before receiving the male allograft with peptides of either SEQ ID NO:5, SEQ ID NO:6 or a sham peptide. This is carried out by 3 subcutaneous injections of peptides made at fortnight intervals in either CFA/IFA. Thereafter, all mice receive a heterotopic male heart transplant.

| Sequence | Rejection of Bm12 skin graft after preimmunization [1] | APC apoptosis (surface binding of Annexin V) induced by CD4+ T cells of mice immunized with the peptide [2] | Rejection rate Day 10 ([3]; pre-immunization in CFA/IFA) | Rejection rate Day 20 ([3]; pre-immunization in CFA/IFA) | Rejection rate Day 10 ([3]; pre-immunization in alum) | Rejection rate Day 20 ([3]; pre-immunization in alum) | Effect of pre-immunization on skin graft rejection (in words) [3] | Graft findings (cellular infiltration, endothelitis, chronic vascular lesions) [4] | Outcome of transplanted heart after pre-immunization [4] |
| --- | --- | --- | --- | --- | --- | --- | --- | --- | --- |
| CGHCPEFLEQKRA (redox motif + mutated version of I-Ab locus) [SEQ ID. NO: 11] | reject the B12m graft unless they are preimmunized with the peptide of SEQ ID. NO: 11 | – | – | – | – | – | – | – | – |
| CHGCFNSNRANSS (redox motif + T cell epitope of Dby antigen) [SEQ ID. NO: 6] | – | induced into apoptosis | 0/3 | 0/3 | 0/3 | 0/3 | fully prevents graft rejection | absence of cellular infiltration, of signs of endothelitis and of chronic vascular lesions | tolerate the graft |
| FNSNRANSS (T cell epitope of Dby antigen) [SEQ ID. NO: 5, reference compound] | – | did not induce any significant degree of APC apoptosis | 2/3 | 2/3** | – | – | accelerates the rejection | – | show rejection of the transplanted heart |
